{
  "source": "patent US20120270935A1",
  "about": "“FORMULATIONS” (priority 2009, published 2012)",
  "key": {"S. aureus ATCC 29213": {"test_system": "S. aureus ATCC 29213", "assay": "MBC assay", "assay_type": "cell-based, Staphylococcus aureus", "conditions": "Mueller-Hinton broth pH 7.0", "text": "(a) staphylococci. The Staphylococcus aureus strain used was ATCC 29213. S. aureus and other staphylococci are common causes of a wide range of skin, skin structure and wound infections; S. aureus is also known to exacerbate eczema. The ATCC 29213 strain is known to be susceptible to beta-lactam antibiotics such as methicillin. The Staphylococcus epidermidis strain used was NCTC 11047. Staph. epidermidis forms part of the resident flora of skin and is an opportunistic pathogen which can cause biofilms to grow for instance on plastic surgical implants such as catheters. Unless otherwise stated, the staphylococci were cultured and maintained on Mueller-Hinton Medium (agar and broth) at pH 7.2; cultures were incubated aerobically at 37° C. for 19-20 hours, at pH 7 (±0.2). (b) C. striatum NCTC 764. Corynebacterium striatum is closely related to organisms (aerobic diphtheroids of the genus Corynebacterium) that cause body odour. It was cultured and maintained on Mueller-Hinton medium (agar and broth). All cultures were incubated aerobically at 37° C. for 72 hours, at pH 7 (±0.2). (c) streptococci. The strains tested were S. mutans ATCC 25175 and S. pyogenes ATCC 12344. S. mutans is a Gram-positive, microaerophilic bacterium which plays a significant role in dental caries and in infective endocarditis. Streptococcus pyogenes is associated with skin, soft tissue, burn and wound infections. S. mutans was cultured and maintained on Wilkins-Chalgren Anaerobe medium+1 g/L glucose (agar and broth); it was incubated in air at 37° C. for 48 hours, at pH 7 (±0.2) with 5% carbon dioxide. S. pyogenes was cultured and maintained on Mueller-Hinton medium (broth and agar) and was incubated under the same conditions as S. mutans. […]\n(§1) Example 8 was repeated (except for the supplemented DDA assays), using S. aureus ATCC 29213 as the test organism. […] In the DDA assays, 200 μg is of each compound was loaded onto each disc: the culture medium was Mueller-Hinton agar at pH 7.0, and results were recorded after overnight incubation at 37° C. in air. […]"}, "[1]": {"test_system": "S. epidermidis NCTC 11047", "assay": "MIC assay", "assay_type": "cell-based, Staphylococcus epidermidis", "conditions": "Mueller-Hinton broth pH 7.0", "text": "(a) staphylococci. The Staphylococcus aureus strain used was ATCC 29213. S. aureus and other staphylococci are common causes of a wide range of skin, skin structure and wound infections; S. aureus is also known to exacerbate eczema. The ATCC 29213 strain is known to be susceptible to beta-lactam antibiotics such as methicillin. The Staphylococcus epidermidis strain used was NCTC 11047. Staph. epidermidis forms part of the resident flora of skin and is an opportunistic pathogen which can cause biofilms to grow for instance on plastic surgical implants such as catheters. […]\nThis is a standard international method for quantitatively assessing the antimicrobial activity of a compound in a liquid medium. […]\nThe wells were inoculated with a liquid suspension of freshly grown micro-organism and incubated under the conditions described above. […] The MIC value was recorded as the lowest concentration of test compound required to inhibit microbial growth, ie the lowest concentration for which the liquid in the well remained clear. […]\nas §1"}, "S. mutans ATCC 25175": {"test_system": "S. mutans ATCC 25175", "assay": "MIC assay", "assay_type": "cell-based, Streptococcus mutans", "conditions": "Wilkins-Chalgren broth pH 7 (±0.2)", "description": "This is a standard international method for quantitatively assessing the antimicrobial activity of a compound in a liquid medium. The method used a sterile 96-well microtitre plate, capable of holding about 200 μl of liquid per well. […] The culture medium was as described above.\n(§2) The wells were inoculated with a liquid suspension of freshly grown micro-organism and incubated under the conditions described above. After incubation, the microtitre plate was examined visually (with the aid of a light box) for cloudiness in each well, which would indicate microbial growth. The MIC value was recorded as the lowest concentration of test compound required to inhibit microbial growth, ie the lowest concentration for which the liquid in the well remained clear.\n(§3) The assays included both negative (culture medium with no micro-organisms) and positive (culture medium plus diluting solvent plus micro-organism) controls."}, "P. acnes NCTC 737": {"test_system": "P. acnes NCTC 737", "assay": "Minimum inhibitory concentration (MIC) assay, broth microtitre", "assay_type": "cell-based, Propionibacterium acnes", "conditions": "compound in DMSO, triplicate", "description": "The first test micro-organism used was Propionibacterium acnes NCTC 737. This is a propionibacterial strain and is the type strain of the […]; it is fully susceptible to antibiotics.\nThe propionibacteria were cultured and maintained on Wilkins-Chalgren Anaerobe Medium (agar and broth) at pH 6.0; all cultures were incubated anaerobically at 37° C. for 72 hours.\nThis is a standard international method for quantitatively assessing the antimicrobial activity of a compound in a liquid medium. The method used a sterile 96-well microtitre plate, capable of holding about 200 μl of liquid per well. The wells contained liquid culture medium and ranges of decreasing concentrations of the relevant test compound in doubling dilutions (eg 1000, 500, 250, 125 . . . μg/ml, etc. down to 0.49 μg/ml). The culture medium was as described above.\nas §2, §3\nDDA assays, as described above, were carried out using as the test formulation the gel prepared in Example 2B above. Also tested was the Example 2B gel minus the Klucel™ thickener, which was also subjected to MIC and MBC assays. For the DDAs, which were performed in triplicate, 100 μl of the relevant formulation was loaded onto each disc, and zones of inhibition were recorded after 3 days' anaerobic incubation at 37° C. The MIC and MBC tests were performed in duplicate and the results recorded after 3 days and 7 days respectively, post-subculture onto drug-free medium. […]"}},
  "note": "Like-named read-outs stand apart in the source and are kept apart here.",
  "data": [
    {"molecule": "CC(=O)c1c([O-])c(C)c([O-])c2c1OC1=CC(=O)C(C(C)=O)C(=O)C12C.[Cu+2]", "note": "(stereo not shown) [Copper usnate, copper (II) usnate]", "values": [
      {"measurement": "MBC", "setting": "S. aureus ATCC 29213", "value": 62.5, "unit": "µg/mL"},
      {"measurement": "MIC", "setting": "[1]", "value": 0.98, "unit": "µg/mL"},
      {"measurement": "MIC", "setting": "S. mutans ATCC 25175", "value": 1.95, "unit": "µg/mL"},
      {"measurement": "MIC", "setting": "P. acnes NCTC 737", "value": 0.49, "unit": "µg/mL"}
    ]},
    {"molecule": "CC(=O)c1c(O)c(C)c(O)c2c1OC1=CC(=O)C(C(C)=O)C(=O)C12C", "note": "(stereo not shown) [Usnic acid, 2,6-diacetyl-7,9-dihydroxy-8,9b-dimethyl-1,3(2H,9bh)-dibenzofurandione]", "values": [
      {"measurement": "MBC", "setting": "S. aureus ATCC 29213; Staphylococcus aureus, ATCC29213, read-out: MBC", "value": 250, "unit": "µg/mL"},
      {"measurement": "MIC", "setting": "S. mutans ATCC 25175; Streptococcus mutans, ATCC25175, read-out: MIC", "value": 3.9, "unit": "µg/mL"},
      {"measurement": "MIC", "setting": "P. acnes NCTC 737; Cutibacterium acnes, NCTC737, read-out: MIC", "value": 0.49, "unit": "µg/mL"}
    ]}
  ]
}
